Holding throughout (assay): Competitive isoTOP-ABPP in situ (fragment-treated cells)
What all share (type): cell-based

The target of assay [1] is T1, cysteines in MDA-MB-231 and Ramos cells (Homo sapiens, UniProt P13667).
T1 sequence (P13667 21-645): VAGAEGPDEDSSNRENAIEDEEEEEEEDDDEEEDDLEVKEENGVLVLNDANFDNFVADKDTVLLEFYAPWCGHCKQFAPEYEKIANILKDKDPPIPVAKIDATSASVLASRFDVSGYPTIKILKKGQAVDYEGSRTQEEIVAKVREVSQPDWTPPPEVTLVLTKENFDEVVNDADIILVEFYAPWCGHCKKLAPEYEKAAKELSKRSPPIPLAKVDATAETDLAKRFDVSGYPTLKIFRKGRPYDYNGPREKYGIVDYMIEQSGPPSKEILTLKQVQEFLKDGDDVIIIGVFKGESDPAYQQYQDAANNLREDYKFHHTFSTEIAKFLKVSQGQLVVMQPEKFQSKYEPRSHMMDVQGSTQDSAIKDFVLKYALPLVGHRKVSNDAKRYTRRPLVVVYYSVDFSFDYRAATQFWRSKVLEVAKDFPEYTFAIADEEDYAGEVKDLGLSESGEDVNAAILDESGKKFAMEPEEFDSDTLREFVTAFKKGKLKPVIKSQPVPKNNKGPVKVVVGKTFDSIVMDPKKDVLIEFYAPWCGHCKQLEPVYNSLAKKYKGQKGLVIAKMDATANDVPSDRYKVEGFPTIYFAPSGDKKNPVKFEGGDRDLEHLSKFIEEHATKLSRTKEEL

For assay [2], the target named is cysteines in MDA-MB-231 and Ramos cells (Homo sapiens, UniProt P15121).
In assay [3] the target is T2, cysteines in MDA-MB-231 and Ramos cells (Homo sapiens, UniProt P30101).
T2 sequence (P30101 25-505): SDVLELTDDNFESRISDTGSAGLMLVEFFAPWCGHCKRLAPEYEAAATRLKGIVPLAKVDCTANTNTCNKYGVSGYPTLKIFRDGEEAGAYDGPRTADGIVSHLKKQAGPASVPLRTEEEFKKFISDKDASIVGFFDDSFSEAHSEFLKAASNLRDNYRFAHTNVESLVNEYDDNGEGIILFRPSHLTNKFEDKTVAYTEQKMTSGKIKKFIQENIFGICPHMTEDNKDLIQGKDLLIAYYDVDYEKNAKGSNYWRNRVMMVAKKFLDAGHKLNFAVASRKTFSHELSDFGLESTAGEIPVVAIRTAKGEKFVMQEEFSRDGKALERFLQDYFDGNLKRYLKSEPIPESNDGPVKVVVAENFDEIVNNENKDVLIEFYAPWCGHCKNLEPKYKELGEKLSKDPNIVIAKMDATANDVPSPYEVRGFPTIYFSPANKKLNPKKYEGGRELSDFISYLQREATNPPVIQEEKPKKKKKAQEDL

In assay [4] the target is T3, cysteines in MDA-MB-231 and Ramos cells (Homo sapiens, UniProt Q9BVC5).
T3 sequence (Q9BVC5 1-232): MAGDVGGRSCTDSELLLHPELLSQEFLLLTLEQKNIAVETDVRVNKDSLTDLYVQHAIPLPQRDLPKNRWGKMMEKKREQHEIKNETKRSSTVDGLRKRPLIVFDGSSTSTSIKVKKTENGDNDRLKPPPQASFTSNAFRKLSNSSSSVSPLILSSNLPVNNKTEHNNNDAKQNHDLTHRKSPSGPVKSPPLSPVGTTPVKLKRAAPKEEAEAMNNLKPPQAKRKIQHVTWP

Assay [5] deals with T4, cysteines in MDA-MB-231 and Ramos cells (Homo sapiens, UniProt Q9HCC0).
T4 sequence (Q9HCC0 23-563): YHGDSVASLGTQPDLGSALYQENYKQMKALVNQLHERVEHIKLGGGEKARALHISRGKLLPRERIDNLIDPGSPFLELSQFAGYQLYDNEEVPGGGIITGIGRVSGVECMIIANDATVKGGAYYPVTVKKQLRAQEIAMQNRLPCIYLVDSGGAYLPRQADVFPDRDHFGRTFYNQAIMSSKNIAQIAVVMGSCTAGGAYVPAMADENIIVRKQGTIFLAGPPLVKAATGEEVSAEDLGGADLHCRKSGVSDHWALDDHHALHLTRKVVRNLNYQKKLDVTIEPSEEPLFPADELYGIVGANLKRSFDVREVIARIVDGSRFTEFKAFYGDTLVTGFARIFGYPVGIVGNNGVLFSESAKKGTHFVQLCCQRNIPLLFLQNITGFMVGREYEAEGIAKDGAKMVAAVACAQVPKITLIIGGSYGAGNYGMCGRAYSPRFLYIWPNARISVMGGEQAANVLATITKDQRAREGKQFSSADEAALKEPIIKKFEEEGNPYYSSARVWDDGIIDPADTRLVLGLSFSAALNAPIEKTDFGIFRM

The target of assay [6] is T5, cysteines in MDA-MB-231 and Ramos cells (Homo sapiens, UniProt Q99439).
T5 sequence (Q99439 1-309): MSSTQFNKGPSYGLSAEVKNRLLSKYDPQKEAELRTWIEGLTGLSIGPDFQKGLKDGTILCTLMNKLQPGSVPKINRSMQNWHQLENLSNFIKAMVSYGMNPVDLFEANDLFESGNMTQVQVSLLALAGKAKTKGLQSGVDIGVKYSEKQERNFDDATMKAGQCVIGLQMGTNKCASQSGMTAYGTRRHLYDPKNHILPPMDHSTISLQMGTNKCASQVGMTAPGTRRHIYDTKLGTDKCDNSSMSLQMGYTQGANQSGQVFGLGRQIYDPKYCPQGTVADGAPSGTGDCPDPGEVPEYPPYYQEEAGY

Assay [7] has as its target T6, cysteines in MDA-MB-231 and Ramos cells (Homo sapiens, UniProt Q9Y3A3).
T6 sequence (Q9Y3A3 1-225): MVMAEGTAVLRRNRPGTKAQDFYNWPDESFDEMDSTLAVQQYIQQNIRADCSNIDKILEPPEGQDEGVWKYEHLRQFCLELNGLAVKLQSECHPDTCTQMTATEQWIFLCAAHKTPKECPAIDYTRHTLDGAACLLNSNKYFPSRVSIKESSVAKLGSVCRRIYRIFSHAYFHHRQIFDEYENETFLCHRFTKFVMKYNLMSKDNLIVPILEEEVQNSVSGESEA

From patent US10670605B2, “Cysteine reactive probes and uses thereof” (The Scripps Research Institute, priority 2015, dated 2020) come the findings set out here.

Take `COc1ccc2c(c1)CCCN2C(=O)CCl` [compound 2]: in assay [1] (200 μM, insitu, 231), the “isoTOP-ABPP reactivity P13667_C206 PDIA4” value was 2.6 and the “isoTOP-ABPP reactivity P13667_C555 PDIA4” value is reported as 3.2. In addition, the “isoTOP-ABPP reactivity P15121_C299 AKR1B1” value in assay [2] (200 μM, insitu, 231) was found to be 0.9. Also, in assay [3] (200 μM, insitu, 231), the “isoTOP-ABPP reactivity P30101_057 PDIA3” value was 2.2 and the “isoTOP-ABPP reactivity P30101_C406 PDIA3” value is on record as 3.2. In addition, the “isoTOP-ABPP reactivity Q9BVC5_C10 C2orf49” value in assay [4] (200 μM, insitu, 231) was 2.7. Besides, the “isoTOP-ABPP reactivity Q9HCC0_C216 MCCC2” value in assay [5] (200 μM, insitu, 231) is 4.6.

Turning to `COc1ccc(C2CC(c3cccs3)=NN2C(=O)CCl)cc1` (stereo not shown) [compound 4], in assay [1] (100 μM in situ 231), the “isoTOP-ABPP reactivity P13667_C206 PDIA4” value is 6.8 and the “isoTOP-ABPP reactivity P13667_C555 PDIA4” value is 9.0. Moreover, the “isoTOP-ABPP reactivity P15121_C299 AKR1B1” value in assay [2] (100 μM in situ 231) is on record as 1.0. In assay [3] (100 μM in situ 231), the “isoTOP-ABPP reactivity P30101_057 PDIA3” value turned out to be 20.0 and the “isoTOP-ABPP reactivity P30101_C406 PDIA3” value is 9.0. Further, in assay [6] (100 μM in situ 231), the “isoTOP-ABPP reactivity Q99439_C164 CNN2” value is recorded as 1.5. The “isoTOP-ABPP reactivity Q9BVC5_C10 C2orf49” value in assay [4] (100 μM in situ 231) is given as 3.3. Moreover, the “isoTOP-ABPP reactivity Q9HCC0_C216 MCCC2” value in assay [5] (100 μM in situ 231) is on record as 5.9. Further, the “isoTOP-ABPP reactivity Q9Y3A3_C134 MOB4” value in assay [7] (100 μM in situ 231) is listed as 1.2.

Regarding `COc1cc2c(cc1OC)CN(C(=O)CCl)CC2` [compound 8], in assay [1] (200 μM, insitu, 231), the “isoTOP-ABPP reactivity P13667_C206 PDIA4” value is reported as 15.2 and the “isoTOP-ABPP reactivity P13667_C555 PDIA4” value is 20.0. The “isoTOP-ABPP reactivity P15121_C299 AKR1B1” value in assay [2] (200 μM, insitu, 231) was 1.7. Besides, in assay [3] (200 μM, insitu, 231), the “isoTOP-ABPP reactivity P30101_057 PDIA3” value came to 20.0 and the “isoTOP-ABPP reactivity P30101_C406 PDIA3” value came to 20.0. Further, the “isoTOP-ABPP reactivity Q99439_C164 CNN2” value in assay [6] (200 μM, insitu, 231) came out at 1.1. Moreover, in assay [4] (200 μM, insitu, 231), the “isoTOP-ABPP reactivity Q9BVC5_C10 C2orf49” value is recorded as 4.5. In assay [5] (200 μM, insitu, 231), the “isoTOP-ABPP reactivity Q9HCC0_C216 MCCC2” value worked out at 3.9. In assay [7] (200 μM, insitu, 231), the “isoTOP-ABPP reactivity Q9Y3A3_C134 MOB4” value is 1.6.

Take `O=C(CCl)N1CCC(Cc2ccccc2)CC1` [compound 9]: in assay [1] (200 μM, insitu, 231), the “isoTOP-ABPP reactivity P13667_C206 PDIA4” value is given as 1.1 and the “isoTOP-ABPP reactivity P13667_C555 PDIA4” value is listed as 1.4. The “isoTOP-ABPP reactivity P15121_C299 AKR1B1” value in assay [2] (200 μM, insitu, 231) worked out at 1.4. Further, the “isoTOP-ABPP reactivity P30101_C406 PDIA3” value in assay [3] (200 μM, insitu, 231) amounted to 1.4. Further, the “isoTOP-ABPP reactivity Q99439_C164 CNN2” value in assay [6] (200 μM, insitu, 231) came out at 4.7. Further, the “isoTOP-ABPP reactivity Q9Y3A3_C134 MOB4” value in assay [7] (200 μM, insitu, 231) was 20.0.

As for `O=C(CCl)N1CCN(S(=O)(=O)c2ccccc2F)CC1` [compound 10], the “isoTOP-ABPP ratio P13667_C206” value in assay [1] (200 μM, insitu, 231) was determined as 3.8. Moreover, the “isoTOP-ABPP ratio P13667_C555” value is recorded as 3.3 in assay [1] (200 μM, insitu, 231) and 1.4 in assay [1] (200 μM, insitu, ramos). The “isoTOP-ABPP ratio P15121_C299” value in assay [2] (200 μM, insitu, 231) is recorded as 20.0. The “isoTOP-ABPP ratio P30101_C57” value in assay [3] (200 μM, insitu, 231) came out at 3.3. Besides, the “isoTOP-ABPP ratio P30101_C406” value is 3.3 in assay [3] (200 μM, insitu, 231) and 1.4 in assay [3] (200 μM, insitu, ramos). In addition, the “isoTOP-ABPP ratio Q99439_C164” value in assay [6] (200 μM, insitu, 231) was 1.2; in assay [6] (200 μM, insitu, ramos), 1.3. Moreover, the “isoTOP-ABPP ratio Q9BVC5_C10” value in assay [4] (200 μM, insitu, 231) is on record as 3.1. In addition, in assay [5] (200 μM, insitu, 231), the “isoTOP-ABPP ratio Q9HCC0_C216” value turned out to be 2.3. In assay [7] (200 μM, insitu, 231), the “isoTOP-ABPP ratio Q9Y3A3_C134” value is 1.9.

On to `O=C(CCl)NC12CC3CC(CC(C3)C1)C2` [compound 21], for which the “isoTOP-ABPP ratio P13667_C206” value in assay [1] (200 μM, insitu, 231) stood at 0.8. Also, the “isoTOP-ABPP ratio P15121_C299” value in assay [2] (200 μM, insitu, 231) was 2.7. Further, the “isoTOP-ABPP ratio P30101_C57” value in assay [3] (200 μM, insitu, 231) came out at 1.0. Further, the “isoTOP-ABPP ratio Q99439_C164” value in assay [6] (200 μM, insitu, 231) amounted to 0.9. Moreover, in assay [4] (200 μM, insitu, 231), the “isoTOP-ABPP ratio Q9BVC5_C10” value stood at 1.5. The “isoTOP-ABPP ratio Q9HCC0_C216” value in assay [5] (200 μM, insitu, 231) worked out at 2.2.
